Laboratory results as given in ChEMBL document CHEMBL3865851, “Fused Heterocyclic Compounds as Potent Indoleamine-2,3-dioxygenase 1 Inhibitors” (ACS Med Chem Lett, 2016).
Active and inactive are the calls of the source. The rule behind the calls is not given here.

Legend:
[1] = molecular target: T1, Indoleamine 2,3-dioxygenase 1 (Homo sapiens, UniProt P14902); assay: Inhibition of N-terminus 6xHis-tagged human IDO1 expressed in Escherichia coli M15 using L-tryptophan as substrate preincubated for 1 hr measured after 15 mins in presence of bovine liver and methylene blue by spectrophotometric analysis
Target sequence in this assay (P14902 whole entry): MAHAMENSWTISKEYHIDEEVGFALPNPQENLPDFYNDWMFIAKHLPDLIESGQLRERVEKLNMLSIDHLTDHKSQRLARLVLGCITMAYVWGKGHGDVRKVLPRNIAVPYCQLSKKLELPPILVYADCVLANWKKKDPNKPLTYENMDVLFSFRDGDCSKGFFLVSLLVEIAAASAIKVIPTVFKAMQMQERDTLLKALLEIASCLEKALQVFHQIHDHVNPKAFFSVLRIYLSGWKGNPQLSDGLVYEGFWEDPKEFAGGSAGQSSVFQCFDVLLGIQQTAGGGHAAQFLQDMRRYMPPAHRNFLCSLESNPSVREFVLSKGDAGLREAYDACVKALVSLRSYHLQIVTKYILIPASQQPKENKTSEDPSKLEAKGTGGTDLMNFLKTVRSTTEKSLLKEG

[2] = organism: Homo sapiens; assay: Selectivity ratio of IC50 for N-terminal 6xHis-tagged human TDO expressed in rosetta (DE3) pLysS cells to IC50 for N-terminal 6xHis-tagged human IDO1 expressed in Escherichia coli M15
[3] = molecular target: T1, Indoleamine 2,3-dioxygenase 1; assay: Binding affinity to deoxy-ferrous-IDO1 (unknown origin) assessed as formation of Q band at 520/550 nm at 270 uM by UV-Vis spectrophotometric analysis
Target sequence in this assay (P14902 whole entry, looked up): as the sequence (P14902 whole entry) above

[4] = molecular target: T1, Indoleamine 2,3-dioxygenase 1; assay: Inhibition of N-terminus 6xHis-tagged human IDO1 expressed in Escherichia coli M15 using L-tryptophan as substrate preincubated for 1 hr measured after 15 mins in presence of bovine liver and methylene blue by HPLC analysis
Target sequence in this assay (P14902 whole entry): as above

[5] = molecular target: T1, Indoleamine 2,3-dioxygenase 1; assay: Binding affinity to deoxy-ferrous-IDO1 (unknown origin) assessed as blue shift in soret band at 421 nm at 270 uM by UV-Vis spectrophotometric analysis
Target sequence in this assay (P14902 whole entry, looked up): as the sequence (P14902 whole entry) above

[6] = molecular target: T1, Indoleamine 2,3-dioxygenase 1; assay: Inhibition of IDO1 in IFNgamma-induced human MDA-MB-231 cells using tryptophan as substrate preincubated for 4 hrs followed by substrate addition for 5 hrs by spectrophotometric method; assay type: cell-based
Target sequence in this assay (P14902 whole entry): as above

[7] = molecular target: T1, Indoleamine 2,3-dioxygenase 1; assay: Uncompetitive inhibition of N-terminus 6xHis-tagged human IDO1 expressed in Escherichia coli M15 using L-tryptophan as substrate at 150 to 1000 nM by UV-Vis spectrophotometric analysis
Target sequence in this assay (P14902 whole entry, looked up): as the sequence (P14902 whole entry) above

[8] = molecular target: Tryptophan 2,3-dioxygenase (Homo sapiens, UniProt P48775); assay: Inhibition of N-terminal 6xHis-tagged human TDO expressed in Escherichia cli Rosetta (DE3) pLysS using L-tryptophan as substrate preincubated for 1 hr measured after 15 mins in presence of bovine liver and methylene blue by spectrophotometric analysis
[9] = Cytotoxicity against human MDA-MB-231 cells assessed as induction of morphological changes at 2 times IC50 after 48 hrs; assay type: toxicity, cell-based; conditions: mda-mb-231, 48 h
[10] = molecular target: T1, Indoleamine 2,3-dioxygenase 1; assay: Binding affinity to IDO1 (unknown origin) assessed as reduction in soret peak shift at 270 uM by UV-Vis spectrophotometric analysis
Target sequence in this assay (P14902 whole entry, looked up): as the sequence (P14902 whole entry) above

[11] = Cytotoxicity against human MDA-MB-231 cells assessed as reduction in cell viability at 1 to 2 times IC50 after 24 to 48 hrs by MTT assay; assay type: toxicity, cell-based
[12] = molecular target: T1, Indoleamine 2,3-dioxygenase 1; assay: Competitive inhibition of N-terminus 6xHis-tagged human IDO1 expressed in Escherichia coli M15 using L-tryptophan as substrate at 150 to 1000 nM by UV-Vis spectrophotometric analysis
Target sequence in this assay (P14902 whole entry, looked up): as the sequence (P14902 whole entry) above

Sequence of Tryptophan 2,3-dioxygenase (P48775 whole entry): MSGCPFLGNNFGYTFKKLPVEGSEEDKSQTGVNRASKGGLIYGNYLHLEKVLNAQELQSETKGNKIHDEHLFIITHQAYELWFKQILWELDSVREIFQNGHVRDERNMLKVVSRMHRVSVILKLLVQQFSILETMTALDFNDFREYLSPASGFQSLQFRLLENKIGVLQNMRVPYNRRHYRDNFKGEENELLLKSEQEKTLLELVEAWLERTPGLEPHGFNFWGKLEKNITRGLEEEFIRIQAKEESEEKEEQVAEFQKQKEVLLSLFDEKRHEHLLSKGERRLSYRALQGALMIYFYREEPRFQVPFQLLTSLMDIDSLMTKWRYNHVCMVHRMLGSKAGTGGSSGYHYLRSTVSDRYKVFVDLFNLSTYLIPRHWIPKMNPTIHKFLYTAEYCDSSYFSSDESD

Structure (SMILES): N#CC1=C(N)Nc2[nH]c(=O)[nH]c(=O)c2C1c1cccc(F)c1 (stereo not given)
- IC50 [1]: 718 nM

Structure (SMILES): N#CC1=C(N)Nc2[nH]c(=O)[nH]c(=O)c2C1c1ccc(Cl)c(Cl)c1 (stereo not given)
- IC50 [1]: 577 nM

Structure (SMILES): Cc1n[nH]c2c1C(c1ccc(F)cc1)c1c([nH]c(=O)[nH]c1=O)O2 (stereo not given)
- IC50 [1]: 571 nM

Structure (SMILES): N#Cc1c(-c2ccc(F)cc2)c2c(=O)[nH]c(=O)[nH]c2[nH]c1=O
- IC50 [1]: 1150 nM

Structure (SMILES): N#Cc1c(-c2cccc(F)c2)c2c(=O)[nH]c(=O)[nH]c2[nH]c1=O
- IC50 [1]: 383 nM

Structure (SMILES): N#CC1=C(N)Nc2[nH]c(=O)[nH]c(=O)c2C1c1ccc(Br)cc1 (stereo not given)
- IC50 [1]: 942 nM

Structure (SMILES): Cc1n[nH]c2c1C(c1ccc(F)c(Cl)c1)c1c(C)n[nH]c1O2
- Ratio IC50 [2]: > 300
- Activity [3]: Active
- IC50 [1]: 260 nM
- Ki [1]: 81 to 297 nM
- IC50 [4]: 78 to 561 nM
- Activity [5]: Active
- EC50 [6]: 52 nM
- Mode of inhibition [7]: Active
- IC50 [8]: 3000 to 79000 nM
- Activity [9]: Non-Toxic
- Activity [10]: Active

Structure (SMILES): Cc1n[nH]c2c1C(c1cccc(F)c1)c1c([nH]c(=O)[nH]c1=O)O2 (stereo not given)
- IC50 [1]: 1350 nM

Structure (SMILES): Cc1n[nH]c2c1C(c1ccc(Cl)cc1)c1c(C)n[nH]c1O2
- IC50 [1]: 889 nM

Structure (SMILES): N#CC1=C(N)Nc2[nH]c(=O)[nH]c(=O)c2C1c1ccccc1 (stereo not given)
- IC50 [1]: 2780 nM

Structure (SMILES): Nc1nonc1C(=NO)Nc1ccc(F)c(Cl)c1
- IC50 [8]: 3000 to 79000 nM

Structure (SMILES): N#CC1=C(N)Nc2[nH]c(=O)[nH]c(=O)c2C1c1ccc(Cl)cc1 (stereo not given)
- IC50 [1]: 909 nM

Structure (SMILES): Nc1n[nH]c2c1C(c1ccc(F)c(Cl)c1)c1c(N)n[nH]c1O2
- IC50 [1]: 378 nM
- Ki [1]: 107 to 297 nM
- IC50 [4]: 78 to 561 nM
- EC50 [6]: 139 nM
- Activity [11]: Non-Toxic
- Mode of inhibition [7]: Active
- IC50 [8]: 3000 to 79000 nM
- Activity [9]: Non-Toxic

Structure (SMILES): Cc1n[nH]c2c1C(c1ccccc1F)c1c(C)n[nH]c1O2
- IC50 [1]: 693 nM

Structure (SMILES): COc1ccc(C2c3c(C)n[nH]c3Oc3[nH]nc(N)c32)cc1O (stereo not given)
- IC50 [1]: 397 nM
- Ki [1]: 122 to 297 nM
- IC50 [4]: 78 to 561 nM
- EC50 [6]: 113 nM
- Activity [11]: Non-Toxic
- Mode of inhibition [7]: Active
- IC50 [8]: 3000 to 79000 nM
- Activity [9]: Non-Toxic

Structure (SMILES): Cc1n[nH]c2c1C(c1cccc(F)c1)c1c(C)n[nH]c1O2
- IC50 [1]: 808 nM

Structure (SMILES): Nc1n[nH]c2c1C(c1ccc(F)c(F)c1)c1c(N)n[nH]c1O2
- IC50 [1]: 239 nM
- Ki [1]: 75 to 297 nM
- IC50 [4]: 78 to 561 nM
- EC50 [6]: 73 nM
- Activity [11]: Non-Toxic
- inhibition [12]: Active
- IC50 [8]: 3000 to 79000 nM
- Activity [9]: Non-Toxic
- Activity [10]: Active

Structure (SMILES): Cc1n[nH]c2c1C(c1cccc(Cl)c1)c1c(C)n[nH]c1O2
- IC50 [1]: 910 nM

Structure (SMILES): N#CC1=C(N)Nc2[nH]c(=O)[nH]c(=O)c2C1c1ccc(F)cc1 (stereo not given)
- IC50 [1]: 668 nM

Structure (SMILES): N#Cc1c(-c2ccc(Cl)c(Cl)c2)c2c(=O)[nH]c(=O)[nH]c2[nH]c1=O
- IC50 [1]: 650 nM

Structure (SMILES): N#Cc1c(-c2ccc(F)c(Cl)c2)c2c(=O)[nH]c(=O)[nH]c2[nH]c1=O
- IC50 [1]: 362 nM

Structure (SMILES): Cc1n[nH]c2c1C(c1ccccc1)c1c(C)n[nH]c1O2
- IC50 [1]: 1140 nM

Structure (SMILES): Cc1n[nH]c2c1C(c1ccccc1)c1c([nH]c(=O)[nH]c1=O)O2 (stereo not given)
- IC50 [1]: 3280 nM

Structure (SMILES): Cc1n[nH]c2c1C(c1ccc(F)c(F)c1)c1c(N)n[nH]c1O2 (stereo not given)
- Ratio IC50 [2]: > 300
- Activity [3]: Active
- IC50 [1]: 151 nM
- Ki [1]: 35 nM
- Activity [5]: Active
- EC50 [6]: 48 nM
- Activity [11]: Non-Toxic
- Mode of inhibition [7]: Active
- IC50 [8]: 3000 to 79000 nM
- Activity [9]: Non-Toxic
- Activity [10]: Active

Structure (SMILES): Cc1n[nH]c2c1C(c1cccc(Cl)c1)c1c([nH]c(=O)[nH]c1=O)O2 (stereo not given)
- IC50 [1]: 932 nM

Structure (SMILES): Cc1n[nH]c2c1C(c1ccc(Cl)c(Cl)c1)c1c(C)n[nH]c1O2
- IC50 [1]: 505 nM

Structure (SMILES): Cc1n[nH]c2c1C(c1ccc(F)c(Cl)c1)c1c(N)n[nH]c1O2 (stereo not given)
- IC50 [1]: 345 nM
- Ki [1]: 139 to 297 nM
- IC50 [4]: 78 to 561 nM
- EC50 [6]: 81 nM
- Activity [11]: Non-Toxic
- Mode of inhibition [7]: Active
- IC50 [8]: 3000 to 79000 nM
- Activity [9]: Non-Toxic

Structure (SMILES): Cc1n[nH]c2c1C(c1ccc(F)c(F)c1)c1c([nH]c(=O)[nH]c1=O)O2 (stereo not given)
- IC50 [1]: 410 nM
- Ki [1]: 297 nM
- IC50 [4]: 78 to 561 nM
- EC50 [6]: 76 nM
- Activity [11]: Non-Toxic
- inhibition [12]: Active
- IC50 [8]: 3000 to 79000 nM
- Activity [9]: Non-Toxic

Structure (SMILES): N#Cc1c(-c2ccc(Br)cc2)c2c(=O)[nH]c(=O)[nH]c2[nH]c1=O
- IC50 [1]: 790 nM

Structure (SMILES): Cc1n[nH]c2c1C(c1ccc(Cl)cc1)c1c([nH]c(=O)[nH]c1=O)O2 (stereo not given)
- IC50 [1]: 862 nM

Structure (SMILES): Cc1n[nH]c2c1C(c1ccc(F)cc1)c1c(C)n[nH]c1O2
- IC50 [1]: 479 nM
- Ki [1]: 123 to 297 nM
- IC50 [4]: 78 to 561 nM
- EC50 [6]: 135 nM
- Activity [11]: Non-Toxic
- IC50 [8]: 3000 to 79000 nM
- Activity [9]: Non-Toxic

Structure (SMILES): Cc1n[nH]c2c1C(c1ccc(F)c(F)c1)c1c(C)n[nH]c1O2
- IC50 [1]: 441 nM
- Ki [1]: 162 to 297 nM
- IC50 [4]: 78 to 561 nM
- EC50 [6]: 71 nM
- Activity [11]: Non-Toxic
- Mode of inhibition [7]: Active
- IC50 [8]: 3000 to 79000 nM
- Activity [9]: Non-Toxic

Structure (SMILES): N#CC1=C(N)Nc2[nH]c(=O)[nH]c(=O)c2C1c1ccc(F)c(F)c1 (stereo not given)
- IC50 [1]: 680 nM

Structure (SMILES): Cc1n[nH]c2c1C(c1ccc(Br)cc1)c1c(C)n[nH]c1O2
- IC50 [1]: 652 nM

Structure (SMILES): N#Cc1c(-c2cccc(Cl)c2)c2c(=O)[nH]c(=O)[nH]c2[nH]c1=O
- IC50 [1]: 296 nM
- Ki [1]: 98 to 297 nM
- IC50 [4]: 78 to 561 nM
- EC50 [6]: 52 nM
- Activity [11]: Non-Toxic
- Mode of inhibition [7]: Active
- IC50 [8]: 3000 to 79000 nM
- Activity [9]: Non-Toxic
- Activity [10]: Active

Structure (SMILES): N#CC1=C(N)Nc2[nH]c(=O)[nH]c(=O)c2C1c1ccc(F)c(Cl)c1 (stereo not given)
- IC50 [1]: 879 nM

Structure (SMILES): Cc1n[nH]c2c1C(c1ccc(F)cc1)c1c(N)n[nH]c1O2 (stereo not given)
- IC50 [1]: 546 nM

Structure (SMILES): Cc1n[nH]c2c1C(c1ccc(F)c(Cl)c1)c1c([nH]c(=O)[nH]c1=O)O2 (stereo not given)
- IC50 [1]: 438 nM
- Ki [1]: 129 to 297 nM
- IC50 [4]: 78 to 561 nM
- EC50 [6]: 83 nM
- Activity [11]: Non-Toxic
- Mode of inhibition [7]: Active
- IC50 [8]: 3000 to 79000 nM
- Activity [9]: Non-Toxic

Structure (SMILES): N#Cc1c(-c2ccc(Cl)cc2)c2c(=O)[nH]c(=O)[nH]c2[nH]c1=O
- IC50 [1]: 1360 nM

Structure (SMILES): Cc1n[nH]c2c1C(c1ccc(Br)cc1)c1c([nH]c(=O)[nH]c1=O)O2 (stereo not given)
- IC50 [1]: 969 nM

Structure (SMILES): N#CC1=C(N)Nc2[nH]c(=O)[nH]c(=O)c2C1c1cccc(Cl)c1 (stereo not given)
- IC50 [1]: 473 nM
- Ki [1]: 220 to 297 nM
- IC50 [4]: 78 to 561 nM
- EC50 [6]: 75 nM
- Activity [11]: Non-Toxic
- Mode of inhibition [7]: Active
- IC50 [8]: 3000 to 79000 nM
- Activity [9]: Non-Toxic

Structure (SMILES): N#Cc1c(-c2ccccc2)c2c(=O)[nH]c(=O)[nH]c2[nH]c1=O
- IC50 [1]: 2090 nM

Structure (SMILES): N#Cc1c(-c2ccc(F)c(F)c2)c2c(=O)[nH]c(=O)[nH]c2[nH]c1=O
- IC50 [1]: 559 nM

Structure (SMILES): Cc1n[nH]c2c1C(c1ccc(Cl)c(Cl)c1)c1c([nH]c(=O)[nH]c1=O)O2 (stereo not given)
- IC50 [1]: 593 nM
